Data: US10308617B2, “Triazole benzamide derivatives and the compositions and methods of treatment regarding the same” (An2H Discovery Limited, priority 2016, dated 2019)
Read-outs that look alike come from different tables or passages of the source.

What was measured:
[1] = Microsomal Stability Assay, rat liver microsomes; assay type: in vitro ADME; conditions: for half-life at 1 μM: rat, liver microsomes, pH 7.4, 1 μM compound, 1.0 mg/mL microsome, NADPH, read-out: RLM t1/2
Description: Compounds were also tested for metabolic stability in both rat liver microsomes (RLM) and human liver microsomes (HLM) and their half-life calculated (See Table 5). The assay was performed as follows. The total volume for each incubation was 250 μL. A 100 μM DMSO solution of compound (diluted from 10 mM stock solution) was spiked into 50 mM KH2PO4 (pH 7.4) buffer containing liver microsome at a concentration of 1.0 mg/mL. The reaction was initiated by the addition of 50 μL of 1 mM NADPH. The final concentration of each compound was 1 μM (1% DMSO). The positive controls, phenacetin for CYP1A2, diclofenac for CYP2C9, omeprazole for CYP2C19, dextromethorphan for CYP2D6 and midazolam for CYP3A4 were added to a separate tube with the final substrate concentrations of 1 μM (1% DMSO) for evaluating the enzyme activities in the liver microsomes. At 0, 15, 30 and 60 min, an aliquot of 15 μL reaction mixtures were removed and 200 μL of methanol (with internal standard of 25 ng/mL propranolol) was added to quench the reaction. The resulting mixture was centrifuged and supernatant was used for LC-MS/MS analysis.
The signals for each compound, or the metabolites for the probe substrates and the internal standard were integrated and the peak area ratios to internal standard were generated. Percent parent remaining at a specified timepoint was calculated based on the peak area ratios at time 0 (as 100%) for in vitro metabolic stability studies in liver microsome and hepatocyte. The observed rate constant (kobs) for the metabolism of substrates was calculated by plotting the natural log of percentage substrate remaining versus time of incubation with the slope being kobs. The half-life (T1/2) was calculated according to the following equation: T1/2=0.693/kobs

[2] = system: A549 (lung); assay: Cancer Cell Proliferation Assay (acid phosphatase, 72 hrs); assay type: cell-based; conditions: Homo sapiens
Description: (§1) Measurement of the inhibitive effect of compounds on cancer cell proliferation was performed. Various cell lines were tested, including HCT-116 (colon); A549 (lung); TOV-21G (ovarian); Calu-6 (lung); H1703 (Lung); LS-174T (colon); and SKOV3 (ovarian). The assays were performed under the following conditions: Cells are harvested at a concentration of 4×10^4 cells/ml in media. Volumes of 100 μl/well of these cell suspensions were added to a 96 well plate using a multichannel pipette. Plates were gently agitated to ensure an even dispersion of cells over a given plate. Cells were then incubated at 37° C., 5% CO^2 overnight. Following this, 100 μl of compound at varying concentrations was added to wells in triplicate. Control wells are those with 100 μl media containing 0.33% DMSO added to cell suspension (this is the equivalent volume of DMSO found in the highest concentration of drug). Plates were then gently agitated, as above, and incubated at 37° C., 5% CO2 for 72 hrs (control wells have reached 80-90% confluency). Assessment of cell proliferation in the presence of the compound was determined by the acid phosphatase assay.
(§2) Following the incubation period of 72 hrs, media was removed from the plates. Each well on the plate was washed twice with 100 μl PBS. This was then removed and 100 μl of freshly prepared phosphatase substrate (10 mM p-nitrophenol phosphate in 0.1M sodium acetate, 0.1% triton X-100, pH 5.5) was added to each well. The plates were then incubated in the dark at 37° C. for 2 hours. Colour development was monitored during this time. The enzymatic reaction was stopped by the addition of 50 μl of 1N NaOH. The plate was read in a dual beam plate reader at 405 nm with a reference wavelength of 620 nm. The absorbance reading of the latter is subtracted from the former, and the effect of the drug on cell proliferation was then measured as a percentage against the control cells (DMSO), which is taken as 0% inhibition. […] FIG. 14 A-K also show the % inhibition curves of various compounds on these cancer cell lines with the 72 hrs proliferation assay.

[3] = system: H1703 (Lung); assay: as above; assay type: cell-based; conditions: Homo sapiens, NCI-H1703, read-out: IC50 on cancer cell line proliferation, H1703
Description: as §1, §2

[4] = system: HCT-116 (colon); assay: as above; assay type: cell-based; conditions: Homo sapiens, read-out: IC50 on cancer cell line proliferation, HCT-116
Description: as §1, §2

[5] = system: LS-174T (colon); assay: as above; assay type: cell-based; conditions: Homo sapiens, LS174T, read-out: IC50 on cancer cell line proliferation, LS-174T
Description: as §1, §2

[6] = system: SKOV3 (ovarian); assay: as above; assay type: cell-based; conditions: Homo sapiens, SK-OV-3, read-out: IC50 on cancer cell line proliferation, SKOV3
Description: as §1, §2

[7] = system: TOV-21G (ovarian); assay: as above; assay type: cell-based; conditions: Homo sapiens, TOV21G, read-out: IC50 on cancer cell line proliferation, TOV-21G
Description: as §1, §2

[8] = system: Calu-6 (lung); assay: as above; assay type: cell-based; conditions: Homo sapiens, read-out: IC50 on cancer cell line proliferation, Calu6
Description: as §1, §2

[9] = read-out: IC50 on cancer cell line proliferation, A549

Structure (SMILES) | half-life at 1 μM [1] | In vitro RLM ([1]; as repeated in the PK tables) | IC50 [2, 9] | IC50 [3] | IC50 [4] | IC50 [5] | IC50 [6] | IC50 [7] | In vitro RLM (min) ([1]; as repeated in the PK tables) | IC50 [8] | IC50 ([2]; A549, 72 h, heading: IC50 on cancer cell line proliferation)
O=C(Nc1nc(NC(=O)c2cc3ccccc3s2)n(-c2ccccc2)n1)c1ccccc1 [Compound A2] | 36 min |  |  |  |  |  |  |  |  |  | 
O=C(Nc1nc(NC(=O)c2ccccc2)n(-c2ccccc2)n1)c1ccccc1 [Compound A, N,N′-(1-phenyl-1H-1,2,4-triazole-3,5-diyl)dibenzamide] | 20.6 min |  |  |  |  |  |  |  |  |  | 
O=C(Nc1nc(NC(=O)c2ccc3ccccc3n2)n(-c2ccccc2)n1)c1ccccc1 [Compound B2] | 2 min |  |  |  |  |  |  |  |  |  | 
Cc1ccccc1C(=O)Nc1nc(NC(=O)/C=C/c2ccccc2)n(-c2ccccc2)n1 [Compound C2] | 12 min |  |  |  |  |  |  |  |  |  | 
O=C(/C=C/c1ccccc1)Nc1nc(NC(=O)c2ccccc2)nn1-c1ccccc1 [Compound C, N-(5-cinnamamido-1-phenyl-1H-1,2,4-triazol-3-yl)benzamide] | 14.1 min | 14.1 min | 2260 nM | 2590 nM | 1670 nM | 2200 nM | 3160 nM | 1740 nM |  |  | 
O=C(Nc1nc(NC(=O)c2ccccc2)n(-c2ccc3c(c2)OCCO3)n1)c1ccccc1 [Compound E2] | 3 min |  |  |  |  |  |  |  |  |  | 
Cc1ccccc1C(=O)Nc1nc(NC(=O)c2ccccc2C)n(-c2ccccc2)n1 [Compound F, 2-methyl-N-[5-[(2-methylbenzoyl)amino]-1-phenyl-1,2,4-triazol-3-yl]benzamide] | 630 min |  | 2650 nM |  | 2280 nM | 2670 nM | 3300 nM | 2220 nM | Stable |  | 
O=C(Nc1nc(NC(=O)c2cccs2)nn1-c1ccccc1)c1ccccc1 [Compound G2] | 39 min |  |  |  |  |  |  |  |  |  | 
Cc1ccccc1C(=O)Nc1nc(-c2ccccn2)nn1-c1ccc(OC(F)(F)F)cc1 [Compound H3] | 16 min |  | 823 nM | 3040 nM | 485 nM | 497 nM | 737 nM | 751 nM |  | 2410 nM | 
O=C(Nc1nc(NC(=O)c2ccccc2)n(-c2ccc3ncccc3c2)n1)c1ccccc1 [Compound J2] | 50 min |  |  |  |  |  |  |  |  |  | 
Cc1ccccc1C(=O)Nc1nc(NC(=O)c2cccs2)nn1-c1ccccc1 [Compound K2] | 29 min |  |  |  |  |  |  |  |  |  | 
Cc1ccccc1C(=O)Nc1nc(NC(=O)c2ccccc2)nn1-c1ccccc1 [Compound K, N-(5-benzamido-2-phenyl-1,2,4-triazol-3-yl)-2-methyl-benzamide] |  |  | 2530 nM | 3460 nM | 1920 nM | 3110 nM | 3140 nM | 1350 nM |  |  | 
O=C(Nc1nc(Nc2ncnc3ccccc23)n(-c2ccccc2)n1)c1ccccc1 [Compound L, N-[1-phenyl-5-(quinazolin-4-ylamino)-1,2,4-triazol-3-yl]benzamide] | 59.2 min |  |  |  | 939 nM | 1520 nM | 1230 nM | 989 nM |  | 2270 nM | 1550 nM
Cc1ccccc1C(=O)Nc1nc(-c2ccccn2)nn1-c1ccccc1 [Compound Q2] | 76 min |  | 2160 nM | ~2530 nM | 1640 nM | 2290 nM | 2080 nM | 1600 nM |  |  | 
Cc1ccccc1C(=O)Nc1nc(NC(=O)c2ccccc2C)n(-c2ccc(Cl)cc2)n1 [Compound Q3] | 133 min |  | 613 nM | 1540 nM | 294 nM | 1730 nM | 2060 nM | 688 nM |  | 194 nM | 
Cc1ccccc1C(=O)Nc1nc(Nc2ncnc3ccccc23)n(-c2ccccc2)n1 [Compound R2] | 77 min |  |  |  |  |  |  |  |  |  | 
Cc1ccc(-c2nc(NC(=O)c3ccccc3C)n(-c3ccccc3)n2)nc1 [Compound R3, 2-methyl-N-(3-(5-methylpyridin-2-yl)-1-phenyl-1H-1,2,4-triazol-5-yl)benzamide] |  |  | 1980 nM | 2620 nM | 1300 nM | 1690 nM | 2710 nM | 1190 nM |  | 3370 nM | 
Cc1ccccc1C(=O)Nc1nc(-c2ncccc2C)nn1-c1ccccc1 [Compound S3, 2-methyl-N-(3-(3-methylpyridin-2-yl)-1-phenyl-1H-1,2,4-triazol-5-yl)benzamide] |  |  | 878 nM | 2710 nM | 482 nM | 522 nM | 650 nM | 566 nM |  | 2360 nM | 
O=C(/C=C/c1ccccc1)Nc1nc(NC(=O)c2ccccc2)nn1-c1ccccn1 [Compound U1] | 10.5 min |  |  |  |  |  |  |  |  |  | 
c1ccc(-n2nc(-c3ccccn3)nc2Nc2ncnc3ccccc23)cc1 [Compound U2] | 126 min |  |  |  |  |  |  |  |  |  | 
O=C(Nc1nc(NC(=O)c2ccco2)n(-c2ccccc2)n1)c1ccccc1 [Compound W1] | 110 min |  |  |  |  |  |  |  |  |  | 
O=C(Nc1nc(-c2ccccn2)nn1-c1ccccc1)c1ccccc1 [Compound Y1, N-(1-phenyl-3-(pyridin-2-yl)-1H-1,2,4-triazol-5-yl)benzamide] | < 1 min |  | 893 nM | 4700 nM | 351 nM | 938 nM | 1180 nM | 495 nM |  | 3340 nM | 
O=C(Nc1nc(NC(=O)c2ccccc2)n(-c2ccc(OC(F)(F)F)cc2)n1)c1ccccc1 [Compound Z1] | 19 min |  | 253 nM | 481 nM | 132 nM | 391 nM | 606 nM | 210 nM |  | 1060 nM | 
O=C(Nc1nc(Nc2ncnc3ccccc23)n(-c2ccccc2)n1)c1ccco1 [Z] | 45 min |  |  |  |  |  |  |  |  |  | 
